From PMC12040169 (PLOS Biology, 2025) come the findings set out here.

As a reminder, the viability is a read-out of living cells in per cent, often relative to untreated cells.

The series in a line: in vitro. The conditions noted are these: human, hela cells, % viability.

As to `CC(=O)Nc1ccc(-c2ccc3n(c2=O)C[C@H]2C[C@@H]3CN(C(=O)C3CCCCC3)C2)cc1` [CBK289188], the viability at 28.5 h, 10 µM was 84.6%.
In the case of `COc1ccc(-c2ccc(=O)n3c2[C@@H]2C[C@@H](CN(C(=O)NC4CCCCC4)C2)C3)cc1` [CBK289189] it was 82.1%; in that of `COc1ccccc1NC(=O)N1C[C@@H]2C[C@H](C1)c1c(-c3cccs3)ccc(=O)n1C2` [CBK289191], 107%.
The same measure for `COc1ccccc1NC(=O)N1C[C@@H]2C[C@H](C1)c1c(-c3ccccc3F)ccc(=O)n1C2` [CBK289192]: 92.7%; for `O=C(Nc1ccccc1)N1C[C@@H]2C[C@H](C1)c1c(-c3cccnc3)ccc(=O)n1C2` [CBK289193]: 92.3%.
The same measure for `O=C(c1cccs1)N1C[C@@H]2C[C@H](C1)c1c(-c3cncnc3)ccc(=O)n1C2` [CBK289194]: 90.7%; for `N#Cc1ccc(C(=O)N2C[C@@H]3C[C@H](C2)c2c(-c4cccc(C#N)c4)ccc(=O)n2C3)cc1` [CBK289196]: 104%.
As to `COc1ccccc1NC(=O)N1C[C@@H]2C[C@H](C1)c1c(-c3cccc(C#N)c3)ccc(=O)n1C2` [CBK289197], the viability at 28.5 h, 10 µM was found to be 92.8%.
For the molecule `CC(=O)Nc1ccc(-c2ccc(=O)n3c2[C@@H]2C[C@@H](CN(C(=O)c4ccccc4)C2)C3)cc1` [CBK289198], the viability at 28.5 h, 10 µM amounted to 89.4%.
With `CSCC(=O)N1C[C@@H]2C[C@H](C1)c1c(-c3ccc(NC(C)=O)cc3)ccc(=O)n1C2` [CBK289200], the viability at 28.5 h, 10 µM stood at 89.7%.
Consider `CC(=O)N1C[C@@H]2C[C@H](C1)c1ccc(NC(=O)c3ccc(C#N)cc3)c(=O)n1C2` [CBK289202], for which the viability at 28.5 h, 10 µM turned out to be 90.6%.
The same measure for `COc1ccc(CC(=O)Nc2ccc3n(c2=O)C[C@H]2C[C@@H]3CN(C(C)=O)C2)cc1` [CBK289203]: 99.1%; for `CN(C)CC(=O)Nc1ccc2n(c1=O)C[C@H]1C[C@@H]2CN(Cc2ccccn2)C1` [CBK289206]: 107%; for `CC1=C[C@@H](CNC(=O)c2ccccn2)[C@H](C(C)C)C[C@H]1CC(=O)N1CCCC1` [CBK289207]: 86.5%.
In the case of `CC(=O)NC[C@@H]1C=C(C)[C@H](CC(=O)Nc2ccccn2)C[C@H]1C(C)C` [CBK289209] it was 92.3%; in that of `CC1=C[C@@H](CNS(=O)(=O)c2cccs2)[C@H](C(C)C)C[C@H]1CC(=O)O` [CBK289210], 92.4%.
The same measure for `CC1=C[C@@H](CNC(=O)c2ccccc2)[C@H](C(C)C)C[C@H]1CC(=O)O` [CBK289213]: 102%.
For `CC(=O)N1CCN(C(=O)C[C@@H]2C[C@@H](C(C)C)[C@H](CC#N)C=C2C)CC1` [CBK289214], the viability at 28.5 h, 10 µM came out at 103%.
The same measure for `CC1=C[C@@H](CC#N)[C@H](C(C)C)C[C@H]1CC(=O)Nc1ccccn1` [CBK289215]: 87%; for `COc1ccc(NC(=O)C[C@@H]2C[C@@H](C(C)C)[C@H](CC#N)C=C2C)cn1` [CBK289216]: 85.7%; for `CC1=C[C@@H](CO)[C@H](C(C)C)C[C@H]1CC(=O)N1CCN(CCO)CC1` [CBK289217]: 85.7%.
In the case of `CC1=C[C@@H](CO)[C@H](C(C)C)C[C@H]1CC(=O)NCc1cccnc1` [CBK289218] it was 81.7%.
The same measure for `CC1=C[C@@H](CN2CCC(O)CC2)[C@H](C(C)C)C[C@H]1Cc1nnc(-c2ccccc2)o1` [CBK289220]: 97.2%.
Regarding `CC(=O)N1CCN(C[C@@H]2C=C(C)[C@H](Cc3nnc(C(C)(C)C)o3)C[C@H]2C(C)C)CC1` [CBK289221], the viability at 28.5 h, 10 µM turned out to be 86%.
Regarding `CC(=O)NC[C@@H]1C=C(C)[C@H](Cc2nnc(-c3cncn3C)o2)C[C@H]1C(C)C` [CBK289225], the viability at 28.5 h, 10 µM stood at 107%.
In the case of `CC1=C[C@@H](CNS(C)(=O)=O)[C@H](C(C)C)C[C@H]1Cc1nnc(-c2ccccc2F)o1` [CBK289226] it was 116%.
The same measure for `COc1ccc(NC(=O)N[C@H]2C[C@H]3C(=O)N[C@H](Cc4ccccc4)C(=O)N3C2)cc1` [CBK289227]: 84.7%; for `CC1(C)[C@H](Cc2cc(CO)on2)C[C@@H]1NS(=O)(=O)c1ccccc1` [CBK289234]: 86%; for `CC1(C)[C@H](Cc2cc(CO)on2)C[C@@H]1NC(=O)C1CCCCC1` [CBK289235]: 93.1%.
In the case of `O=C1CO[C@H]2CN(S(=O)(=O)c3ccccc3)C[C@H]2N1c1ccccc1` [CBK289236] it was 93.7%; in that of `c1ccc(-c2cc(CC3(NCc4cccnc4)COC3)no2)nc1` [CBK289238], 83.5%; in that of `c1ccc(-c2cc(CC3(NCc4cc5ccccc5o4)COC3)no2)nc1` [CBK289239], 93.4%.
Turning to `CC(=O)N[C@H]1C[C@@H](Cc2cc(CCO)on2)C1(C)C` [CBK289243], the viability at 28.5 h, 10 µM stood at 99.7%.
In the case of `COCC(=O)N[C@H]1C[C@@H](Cc2cc(C(C)(C)C)on2)C1(C)C` [CBK289244] it was 106%; in that of `CC(=O)N1C[C@@H]2OCC(=O)N(Cc3ccccn3)[C@@H]2C1` [CBK289245], 95.8%; in that of `CC(C)C(=O)N[C@H]1C[C@@H](Cc2cc(CN3CCOCC3)on2)C1(C)C` [CBK289248], 99.8%.
In the case of `CN1CCC(NC2(Cc3cc(-c4ccccn4)on3)COC2)CC1` [CBK289249] it was 88.7%; in that of `CN1CCC(N[C@H]2C[C@@H](Cc3cc(CCO)on3)C2(C)C)CC1` [CBK289253], 93.6%; in that of `CC(C)(O)c1cc(CC2(NCc3ccc(Cl)cc3)COC2)no1` [CBK289254], 80.1%.
Regarding `CC(C)(O)c1cc(CC2(NCc3ccco3)COC2)no1` [CBK289255], the viability at 28.5 h, 10 µM was 92.6%.
In the case of `CC1(C)[C@H](Cc2cc(CC3CCCCC3)on2)C[C@@H]1NC(=O)C1CCCC1` [CBK289256] it was 84.7%; in that of `CCCCc1cc(C[C@@H]2C[C@H](NC(=O)N3CCOCC3)C2(C)C)no1` [CBK289257], 87.9%.
`CC1(C)[C@H](Cc2cc(CC3CCCCC3)on2)C[C@@H]1NC(=O)N1CCOCC1` [CBK289258]: the viability at 28.5 h, 10 µM was determined as 98.6%.
The same measure for `O=C1CO[C@H]2CN(Cc3ncc[nH]3)C[C@H]2N1Cc1ccncc1` [CBK289259]: 108%; for `N#Cc1ccc(CN2C[C@@H]3OCC(=O)N[C@@H]3C2)cc1` [CBK289261]: 103%; for `COc1ccc(CN2C(=O)CO[C@H]3CN(C(=O)COc4ccccc4)C[C@H]32)cc1` [CBK289262]: 108%.
The same measure for `COc1ccc(C(=O)N[C@H]2C[C@@H]3C(=O)N[C@H]4CCN(C(=O)C5CCC5)[C@@H]4C(=O)N3C2)cc1` [CBK289266]: 89.3%; for `COc1ccccc1CC(=O)N1CC[C@@H]2NC(=O)[C@H]3C[C@H](NC(=O)C4CC4)CN3C(=O)[C@H]21` [CBK289267]: 103%.
The same measure for `O=C(N[C@H]1C[C@@H]2C(=O)N[C@H]3CCN(C(=O)Cc4cccs4)[C@@H]3C(=O)N2C1)C1CCC1` [CBK289269]: 117%; for `O=C(O)CCC(=O)N[C@H]1CCN2C(=O)c3cc(-c4ccc(Cl)cc4)ccc3NC(=O)[C@H]12` [CBK289275]: 115%; for `Cc1ccc(S(=O)(=O)N2C[C@H](O)C[C@H]2C(=O)O)cc1` [CBK289276]: 103%.
With `CCCN1C(=O)[C@@H]2[C@@H](CCN2C(=O)C(=O)O)N(Cc2cccs2)C1=O` [CBK289277], the viability at 28.5 h, 10 µM came to 93.1%.
`COc1ccc(CC(=O)N2CC[C@H]3NC(=O)N(c4ccccc4)C(=O)[C@H]32)cc1` [CBK289278]: the viability at 28.5 h, 10 µM amounted to 92.7%.
For `COc1cccc(N2C(=O)N[C@@H]3CCN(S(=O)(=O)c4ccccc4)[C@@H]3C2=O)c1` [CBK289283], the viability at 28.5 h, 10 µM is 111%.
In the case of `Cc1ccc(N2C(=O)N[C@@H]3CCN(C(=O)c4ccc(C(C)(C)C)cc4)[C@@H]3C2=O)cc1` [CBK289284] it was 98.8%; in that of `Cc1ccc(N2C(=O)N[C@@H]3CCN(S(=O)(=O)c4ccccc4)[C@@H]3C2=O)cc1` [CBK289285], 107%.
As to `COC(=O)C(=O)N1CC[C@H]2NC(=O)N(c3ccc(C(C)C)cc3)C(=O)[C@H]21` [CBK289287], the viability at 28.5 h, 10 µM is 105%.
The same measure for `CC(C)c1ccc(N2C(=O)N[C@@H]3CCN(S(=O)(=O)c4ccccc4)[C@@H]3C2=O)cc1` [CBK289289]: 114%.
The same measure for `COC(=O)C(=O)N1CC[C@H]2NC(=O)N(Cc3ccccc3)C(=O)[C@H]21` [CBK289292]: 98.6%; for `CS(=O)(=O)c1ccc(CN2CCOC[C@H]2c2nc(-c3ccc(F)cc3)c[nH]2)cc1` [CBK289295]: 89.4%; for `COc1ccc(-c2c[nH]c([C@@H]3COCCN3Cc3csnn3)n2)cc1` [CBK289297]: 97.5%.
Take `COc1ccc(-c2c[nH]c([C@@H]3COCCN3Cc3cccc(C#N)c3)n2)cc1` [CBK289298]: the viability at 28.5 h, 10 µM is 96%.
Take `CS(=O)(=O)c1ccc(-c2c[nH]c([C@@H]3COCCN3Cc3ccccc3)n2)cc1` [CBK289300]: the viability at 28.5 h, 10 µM turned out to be 83.1%.
In the case of `Cc1ccc(-c2c[nH]c([C@@H]3COCCN3Cc3csnn3)n2)cc1` [CBK289302] it was 91.4%; in that of `FC(F)(F)Oc1ccc(-c2c[nH]c([C@@H]3COCCN3Cc3c[nH]cn3)n2)cc1` [CBK289303], 111%; in that of `O=C(O)c1ccc(CN2CCOC[C@H]2c2nc(-c3ccc(F)cc3)c[nH]2)cc1` [CBK289304], 91.2%.
In the case of `Clc1ccc(-c2c[nH]c([C@@H]3COCCN3Cc3csnn3)n2)cc1` [CBK289309] it was 87.1%; in that of `CCNC(=O)N[C@H]1C[C@@H](Cc2cc(CN(C)C)on2)C1(C)C` [CBK289310], 105%.
Regarding `CN(C)Cc1cc(C[C@@H]2C[C@H](NC(=O)c3ccnc(Cl)c3)C2(C)C)no1` [CBK289311], the viability at 28.5 h, 10 µM worked out at 89.6%.
